According to patent US12077503B2, “Substituted cyclic amides and their use as herbicides” (FMC CORPORATION, priority 2015, dated 2024):

Assays:
Format in all cases: in vivo
[1] = tested on: ragweed (common ragweed, Ambrosia elatior); experiment: Test A preemergence; conditions: Ambrosia artemisiifolia, pre-emergence, 240 h
Procedure, shortened: (§1)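 Seeds sprayed preemergence with a directed soil spray, or plants at 2 to 10 cm height and one- to two-leaf stage sprayed postemergence, with test chemicals in a non-phytotoxic solvent mixture containing surfactant, in loam soil–sand blend. Injury rated visually against untreated controls after about 10 d in greenhouse, 0 (no effect) to 100 (complete control).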

[2] = tested on: giant foxtail (Setaria faberii); experiment: Test A preemergence; conditions: Setaria faberi, pre-emergence, 240 h
Procedure, shortened: as §1

[3] = tested on: pigweed (Amaranthus retroflexus); experiment: Test A preemergence; conditions: Amaranthus retroflexus, pre-emergence, 240 h
[4] = tested on: barnyardgrass (Echinochloa crus-galli); experiment: Test A preemergence; conditions: Echinochloa crus-galli, pre-emergence, 240 h
Procedure, shortened: as §1

[5] = tested on: ryegrass, Italian (Italian ryegrass, Lolium multiflorum); experiment: Test A preemergence; conditions: Lolium multiflorum, pre-emergence, 240 h
Procedure, shortened: as §1

Kochia (Kochia scoparia) [6] = experiment: Test A preemergence; conditions: Bassia scoparia, pre-emergence, 240 h
Procedure, shortened: as §1

[7] = tested on: ragweed (common ragweed, Ambrosia elatior); experiment: Test A postemergence; conditions: Ambrosia artemisiifolia, post-emergence, 240 h, read-out: Plant response rating, Ragweed
Procedure, shortened: as §1

corn (Zea mays) = experiment: Test A postemergence; conditions: Zea mays, post-emergence, 240 h
Procedure, shortened: as §1

[8] = tested on: giant foxtail (Setaria faberii); experiment: Test A postemergence; conditions: Setaria faberi, post-emergence, 240 h, read-out: Plant response rating, Foxtail, Giant
Procedure, shortened: as §1

[9] = tested on: pigweed (Amaranthus retroflexus); experiment: Test A postemergence; conditions: Amaranthus retroflexus, post-emergence, 240 h, read-out: Plant response rating, Pigweed
Procedure, shortened: as §1

[10] = tested on: barnyardgrass (Echinochloa crus-galli); experiment: Test A postemergence; conditions: Echinochloa crus-galli, post-emergence, 240 h, read-out: Plant response rating, Barnyardgrass
Procedure, shortened: as §1

[11] = tested on: Galium (catchweed bedstraw, Galium aparine); experiment: Test A postemergence; conditions: Galium, post-emergence, 240 h, read-out: Plant response rating, Galium
Procedure, shortened: as §1

[12] = tested on: blackgrass (Alopecurus myosuroides); experiment: Test A postemergence; conditions: Alopecurus myosuroides, post-emergence, 240 h, read-out: Plant response rating, Blackgrass
Procedure, shortened: as §1

[13] = tested on: ryegrass, Italian (Italian ryegrass, Lolium multiflorum); experiment: Test A postemergence; conditions: Lolium multiflorum, post-emergence, 240 h, read-out: Plant response rating, Ryegrass, Italian
Procedure, shortened: as §1

Kochia (Kochia scoparia) [14] = experiment: Test A postemergence; conditions: Bassia scoparia, post-emergence, 240 h, read-out: Plant response rating, Kochia
Procedure, shortened: as §1

[15] = tested on: wheat (Triticum aestivum); experiment: Test A postemergence; conditions: Triticum aestivum, post-emergence, 240 h, read-out: Plant response rating, Wheat
Procedure, shortened: as §1

[16] = tested on: ducksalad (Heteranthera limosa); experiment: Test B flooded paddy test; conditions: Heteranthera limosa, 250 g ai/ha, Flood; 0 to 100 scale where 0 is no effect and 100 is complete control; read-out: Ducksalad plant response rating
Procedure, shortened: (§2)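 2-leaf plants; pots flooded 3 cm over soil; cpd added to paddy water; depth held; greenhouse 13–15 d; visual rating vs controls, 0 = no effect, 100 = complete control.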

[17] = tested on: barnyardgrass (Echinochloa crus-galli); experiment: Test B flooded paddy test; conditions: Echinochloa crus-galli, 250 g ai/ha, Flood; 0 to 100 scale where 0 is no effect and 100 is complete control; read-out: Barnyardgrass plant response rating
Procedure, shortened: as §2

rice (Oryra sativa) = experiment: Test B flooded paddy test; conditions: Oryza sativa, 250 g ai/ha, Flood; 0 to 100 scale where 0 is no effect and 100 is complete control; read-out: Rice plant response rating
Procedure, shortened: as §2

[18] = tested on: sedge, umbrella (small-flower umbrella sedge, Cyperus difformis); experiment: Test B flooded paddy test; conditions: Cyperus difformis, 250 g ai/ha, Flood; 0 to 100 scale where 0 is no effect and 100 is complete control; read-out: Sedge, Umbrella plant response rating
Procedure, shortened: as §2

[19] = 125 g ai/ha, Postemergence, visual injury after approximately 10 d, 0 to 100 scale where 0 is no effect and 100 is complete control
[20] = 500 g ai/ha, postemergence, visual injury, 0 to 100 scale (0 no effect, 100 complete control), approx. 10 d

Cc1cc([C@H]2CN(C)C(=O)[C@@H]2C(=O)Nc2ccccc2F)cc(C)c1Br [Compound 1023]
pest or weed control at 125 g/ha ([1]; 125 g ai/ha, Preemergence, visual injury rating after approximately 10 d, read-out: Ragweed plant response rating (0 to 100 scale, 0 is no effect, 100 is complete control)): 0% | pest or weed control at 500 g/ha ([1]; 500 g ai/ha, preemergence, visual injury rating about 10 d after treatment, 0 to 100 scale (0 no effect, 100 complete control), read-out: Ragweed plant response rating): 40% | pest or weed control at 125 g/ha ([2]; 125 g ai/ha, Preemergence, visual injury rating after approximately 10 d, read-out: Foxtail, Giant plant response rating (0 to 100 scale, 0 is no effect, 100 is complete control)): 90% | pest or weed control at 500 g/ha ([2]; 500 g ai/ha, preemergence, visual injury rating about 10 d after treatment, 0 to 100 scale (0 no effect, 100 complete control), read-out: Foxtail, Giant plant response rating): 90% | pest or weed control at 125 g/ha ([3]; 125 g ai/ha, Preemergence, visual injury rating after approximately 10 d, read-out: Pigweed plant response rating (0 to 100 scale, 0 is no effect, 100 is complete control)): 30% | pest or weed control at 500 g/ha ([3]; 500 g ai/ha, preemergence, visual injury rating about 10 d after treatment, 0 to 100 scale (0 no effect, 100 complete control), read-out: Pigweed plant response rating): 30% | pest or weed control at 125 g/ha ([4]; 125 g ai/ha, Preemergence, visual injury rating after approximately 10 d, read-out: Barnyardgrass plant response rating (0 to 100 scale, 0 is no effect, 100 is complete control)): 90% | pest or weed control at 500 g/ha ([4]; 500 g ai/ha, preemergence, visual injury rating about 10 d after treatment, 0 to 100 scale (0 no effect, 100 complete control), read-out: Barnyardgrass plant response rating): 90% | pest or weed control at 125 g/ha ([5]; 125 g ai/ha, Preemergence, visual injury rating after approximately 10 d, read-out: Ryegrass, Italian plant response rating (0 to 100 scale, 0 is no effect, 100 is complete control)): 50% | pest or weed control at 500 g/ha ([5]; 500 g ai/ha, preemergence, visual injury rating about 10 d after treatment, 0 to 100 scale (0 no effect, 100 complete control), read-out: Ryegrass, Italian plant response rating): 70% | pest or weed control at 125 g/ha (Kochia (Kochia scoparia) [6]; 125 g ai/ha, Preemergence, visual injury rating after approximately 10 d, read-out: Kochia plant response rating (0 to 100 scale, 0 is no effect, 100 is complete control)): 0% | pest or weed control at 500 g/ha (Kochia (Kochia scoparia) [6]; 500 g ai/ha, preemergence, visual injury rating about 10 d after treatment, 0 to 100 scale (0 no effect, 100 complete control), read-out: Kochia plant response rating): 0% | pest or weed control at 125 g/ha [7, 19]: 0% | pest or weed control at 500 g/ha [7, 20]: 0% | Corn plant response rating (crop injury, 0 = no effect, 100 = complete kill) at 125 g/ha (corn (Zea mays); [19]): 0% | Corn plant response rating (crop injury, 0 = no effect, 100 = complete kill) at 500 g/ha (corn (Zea mays); [20]): 50% | pest or weed control at 125 g/ha [8, 19]: 70% | pest or weed control at 500 g/ha [8, 20]: 90% | pest or weed control at 125 g/ha [9, 19]: 0% | pest or weed control at 500 g/ha [9, 20]: 30% | pest or weed control at 125 g/ha [10, 19]: 90% | pest or weed control at 500 g/ha [10, 20]: 90% | pest or weed control at 125 g/ha [11, 19]: 60% | pest or weed control at 500 g/ha [11, 20]: 60% | pest or weed control at 125 g/ha [12, 19]: 0% | pest or weed control at 500 g/ha [12, 20]: 20% | pest or weed control at 125 g/ha [13, 19]: 30% | pest or weed control at 500 g/ha [13, 20]: 30% | pest or weed control at 125 g/ha (Kochia (Kochia scoparia) [14]; [19]): 50% | pest or weed control at 500 g/ha (Kochia (Kochia scoparia) [14]; [20]): 50% | plant injury at 125 g/ha [15, 19]: 0% | plant injury at 500 g/ha [15, 20]: 20% | pest or weed control at 250 g/ha [16]: 65% | pest or weed control at 250 g/ha [17]: 40% | pest or weed control at 250 g/ha (rice (Oryra sativa)): 20% | pest or weed control at 250 g/ha [18]: 0%
